Test results as given in patent publication US20230167088A1, “1-PYRAZINYLPYRAZOLYL-3-OXYALKYL ACIDS AND THEIR DERIVATIVES, AND THEIR USE FOR CONTROL OF UNDESIRED PLANT GROWTH” (BAYER AKTIENGESELLSCHAFT, priority 2020, published 2023).

How the values were obtained:
POLCO [1] = assay: Herbicidal post-emergence action 1a (greenhouse pots, visual rating); format: in vivo, Polygonum convolvulus; settings: dosage 80 g/ha, visual rating about 3 weeks after treatment
Procedure, shortened: (§1)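 Weeds and crops sown in sandy loam in greenhouse pots were sprayed post-emergence at the one-leaf stage (2–3 weeks after sowing) with WP or EC formulations plus 0.5% additive at 600 l/ha water, 320 and/or 80 g/ha. About 3 weeks later damage was rated visually against untreated controls (0% = no effect, 100% = dead).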

LOLRI = assay: as above; format: in vivo, Lolium rigidum; settings: Dosage 80 g/ha; rated visually about 3 weeks after treatment; 100% = plants have died, 0% = like control plants
Procedure, shortened: as §1

ECHCG [2] = assay: Herbicidal pre-emergence action 2a (greenhouse pots, visual scoring); format: in vivo, Echinochloa crus-galli; settings: dosage 320 g/ha, visual scoring after about 3 weeks
Procedure, shortened: (§2)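 Pre-emergence soil-surface spray: WP/EC, 0.5% additive, 600 l/ha water, 320 and/or 80 g/ha. Greenhouse ~3 wk. Visual % damage vs untreated (100% = plants dead, 0% = like control).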

AMARE [3] = assay: as above; format: in vivo, Amaranthus retroflexus; settings: dosage 320 g/ha, visual scoring after about 3 weeks vs untreated controls
Procedure, shortened: as §2

STEME [4] = assay: Herbicidal post-emergence action 1a (greenhouse pots, visual rating); format: in vivo, Stellaria media; settings: Dosage 80 g/ha; rated visually about 3 weeks after treatment; 100% = plants have died, 0% = like control plants
Protocol: (§3) [table] a) Seeds of monocotyledonous and dicotyledonous weeds and crop plants are placed in sandy loam in plastic or organic plant pots, covered with soil and cultivated in a greenhouse under controlled growth conditions. 2 to 3 weeks after sowing, the test plants are treated at the one-leaf stage. The compounds of the invention, formulated in the form of wettable powders (WP) or as emulsion concentrates (EC), are then sprayed onto the green parts of the plants as aqueous suspension or emulsion with addition of 0.5% additive at a water application rate of 600 1/ha (converted). After the test plants have been kept in the greenhouse under optimum growth conditions for about 3 weeks, the activity of the preparations is rated visually in comparison to untreated controls. For example, 100% activity=the plants have died, 0% activity=like control plants. Tables A1 to A15 below show the effects of selected compounds of the general formula (I) according to Tables 1 and 2 on various harmful plants and an application rate corresponding to 320 g/ha and/or 80 g/ha, which were obtained by the experimental procedure mentioned above.

DIGSA [5] = assay: Herbicidal pre-emergence action 2a (greenhouse pots, visual scoring); format: in vivo, Digitaria sanguinalis; settings: dosage 320 g/ha, visual scoring after about 3 weeks
Procedure, shortened: as §2

HORMU [6] = assay: as above; format: in vivo, Hordeum murinum; settings: dosage 320 g/ha, visual scoring after about 3 weeks vs untreated controls
Description: (§4) [table] a) Seeds of monocotyledonous and dicotyledonous weed plants and crop plants are placed in plastic or organic plant pots and covered with soil. The compounds of the invention, formulated in the form of wettable powders (WP) or as emulsion concentrates (EC), are then applied onto the surface of the covering soil as aqueous suspension or emulsion with addition of 0.5% additive at a water application rate of 600 1/ha (converted). After the treatment, the pots are placed in a greenhouse and kept under good growth conditions for the trial plants. After about 3 weeks, the effect of the preparations is scored visually in comparison with untreated controls as percentages. For example, 100% activity=the plants have died, 0% activity=like control plants. Tables B1 to B15 below show the effects of selected compounds of the general formula (I) according to Tables 1 and 2 on various harmful plants and an application rate corresponding to 320 g/ha and/or 80 g/ha, which were obtained by the experimental procedure mentioned above.

HORMU [7] = assay: Herbicidal post-emergence action 1a (greenhouse pots, visual rating); format: in vivo, Hordeum murinum; settings: rated visually about 3 weeks after treatment, 100% = plants have died, 0% = like control plants
Protocol: as §3

STEME [8] = assay: Herbicidal pre-emergence action 2a (greenhouse pots, visual scoring); format: in vivo, Stellaria media; settings: dosage 320 g/ha, visual scoring after about 3 weeks vs untreated controls
Description: as §4

MATIN = assay: Herbicidal post-emergence action 1a (greenhouse pots, visual rating); format: in vivo, Matricaria inodora; settings: dosage 320 g/ha, visual rating about 3 weeks after treatment
Procedure, shortened: as §1

ALOMY [9] = assay: Herbicidal pre-emergence action 2a (greenhouse pots, visual scoring); format: in vivo, Alopecurus myosuroides; settings: dosage 320 g/ha, visual scoring after about 3 weeks
Procedure, shortened: as §2

VIOTR [10] = assay: as above; format: in vivo, Viola tricolor; settings: dosage 320 g/ha, visual scoring after about 3 weeks vs untreated controls
Procedure, shortened: as §2

ALOMY [11] = assay: Herbicidal post-emergence action 1a (greenhouse pots, visual rating); format: in vivo, Alopecurus myosuroides; settings: Dosage 80 g/ha; rated visually about 3 weeks after treatment; 100% = plants have died, 0% = like control plants
Procedure, shortened: as §1

VERPE [12] = assay: Herbicidal pre-emergence action 2a (greenhouse pots, visual scoring); format: in vivo, Veronica persica; settings: dosage 320 g/ha, visual scoring after about 3 weeks vs untreated controls
Procedure, shortened: as §2

AVEFA [13] = assay: Herbicidal post-emergence action 1a (greenhouse pots, visual rating); format: in vivo, Avena fatua; settings: Dosage 80 g/ha; rated visually about 3 weeks after treatment; 100% = plants have died, 0% = like control plants
Procedure, shortened: as §1

DIGSA [14] = assay: as above; format: in vivo, Digitaria sanguinalis; settings: rated visually about 3 weeks after treatment, 100% = plants have died, 0% = like control plants
Protocol: as §3

VIOTR [15] = assay: as above; format: in vivo, Viola tricolor; settings: dosage 80 g/ha, visual rating about 3 weeks after treatment
Procedure, shortened: as §1

VERPE [16] = assay: as above; format: in vivo, Veronica persica; settings: dosage 80 g/ha, visual rating about 3 weeks after treatment
Procedure, shortened: as §1

SETVI = assay: Herbicidal pre-emergence action 2a (greenhouse pots, visual scoring); format: in vivo, Setaria viridis; settings: dosage 320 g/ha, visual scoring after about 3 weeks vs untreated controls
Procedure, shortened: as §2

AMARE [17] = assay: Herbicidal post-emergence action 1a (greenhouse pots, visual rating); format: in vivo, Amaranthus retroflexus; settings: dosage 80 g/ha, visual rating about 3 weeks after treatment
Procedure, shortened: as §1

ABUTH = assay: as above; format: in vivo, Abutilon theophrasti; settings: dosage 320 g/ha, visual rating about 3 weeks after treatment
Procedure, shortened: as §1

harmful plants = assay: Herbicidal pre-emergence action 2a, summary across species; format: in vivo; settings: Tables B1 to B15 (320 g/ha and/or 80 g/ha)
Description: as §4, with “a)” for “[table] a)”, “plants.” for “plants. Tables B1 to B15 below show the effects of selected compounds of the general formula (I) according to Tables 1 and 2 on various harmful plants and an application rate corresponding to 320 g/ha and/or 80 g/ha, which were obtained by the experimental procedure mentioned above.”
Tables B1 to B15 below show the effects of selected compounds of the general formula (I) according to Tables 1 and 2 on various harmful plants and an application rate corresponding to 320 g/ha and/or 80 g/ha, which were obtained by the experimental procedure mentioned above.
For example, compound nos. I-07, I-08, I-11, I-12, I-13, I-16, I-17, I-20, I-36, I-37, I-39, I-45, I-46, I-48, I-52 and I-53 in the pre-emergence method have very good action (80% to 100% herbicidal activity) against harmful plants such as Alopecurus myosuroides, Amaranthus retroflexus, Digitaria sanguinalis, Lolium rigidum, Polygonum convolvulus, Setaria viridis, Veronica persica and Viola tricolor at an application rate of 0.32 kg of active substance per hectare.

AVEFA [18] = assay: Herbicidal pre-emergence action 2a (greenhouse pots, visual scoring); format: in vivo, Avena fatua; settings: dosage 320 g/ha, visual scoring after about 3 weeks
Procedure, shortened: as §2

ECHCG [19] = assay: Herbicidal post-emergence action 1a (greenhouse pots, visual rating); format: in vivo, Echinochloa crus-galli; settings: rated visually about 3 weeks after treatment, 100% = plants have died, 0% = like control plants
Procedure, shortened: as §1

POLCO [20] = assay: Herbicidal pre-emergence action 2a (greenhouse pots, visual scoring); format: in vivo, Polygonum convolvulus; settings: dosage 320 g/ha, visual scoring after about 3 weeks vs untreated controls
Procedure, shortened: as §2

PHBPU = assay: Herbicidal post-emergence action 1a (greenhouse pots, visual rating); format: in vivo, Pharbitis purpurea; settings: dosage 80 g/ha, visual rating about 3 weeks after treatment
Procedure, shortened: as §1

## C=CCOC(=O)C(C)Oc1nn(-c2cnccn2)c(-c2ccc(F)nc2)c1Br (racemic) [Example I-13]
POLCO [1]
  Post-emergence action against POLCO in %: 80%
LOLRI
  Post-emergence action against LOLRI in %: 80%
ECHCG [2]
  Pre-emergence action against ECHCG in %: 100%
AMARE [3]
  Pre-emergence action against AMARE in %: 100%
STEME [4]
  Post-emergence action against STEME in %: 90%
DIGSA [5]
  Pre-emergence action against DIGSA in %: 100%
HORMU [6]
  Pre-emergence action against HORMU in %: 100%
HORMU [7]; Dosage 80 g/ha
  Post-emergence action against HORMU in %: 90%
HORMU [7]; Dosage 320 g/ha
  Post-emergence action against HORMU in %: 90%
STEME [8]
  Pre-emergence action against STEME in %: 90%
MATIN
  Post-emergence action against MATIN in %: 80%
ALOMY [9]
  Pre-emergence action against ALOMY in %: 100%
VIOTR [10]
  Pre-emergence action against VIOTR in %: 100%
ALOMY [11]
  Post-emergence action against ALOMY in %: 90%
VERPE [12]
  Pre-emergence action against VERPE in %: 100%
AVEFA [13]
  Post-emergence action against AVEFA in %: 100%
DIGSA [14]; Dosage 80 g/ha
  Post-emergence action against DIGSA in %: 80%
DIGSA [14]; Dosage 320 g/ha
  Post-emergence action against DIGSA in %: 90%
VIOTR [15]
  Post-emergence action against VIOTR in %: 90%
VERPE [16]
  Post-emergence action against VERPE in %: 90%
SETVI
  Pre-emergence action against SETVI in %: 100%
AMARE [17]
  Post-emergence action against AMARE in %: 80%
ABUTH
  Post-emergence action against ABUTH in %: 80%
Harmful plants
  herbicidal efficacy against harmful plants in the case of pre-emergence treatment (in words): good herbicidal efficacy
AVEFA [18]
  Pre-emergence action against AVEFA in %: 90%
ECHCG [19]; Dosage 80 g/ha
  Post-emergence action against ECHCG in %: 80%
ECHCG [19]; Dosage 320 g/ha
  Post-emergence action against ECHCG in %: 90%
POLCO [20]
  Pre-emergence action against POLCO in %: 90%
PHBPU
  Post-emergence action against PHBPU in %: 80%
